Values of other authors, collected in paper PMC8549773 (Chemical Science, 2021).

System: GCase
Conditions: administered to rats

OC[C@H]1O[C@@H](F)[C@H](F)[C@@H](O)[C@@H]1O [2FGlcF, 2-deoxy-2-fluoro-β-D-glucosyl fluoride]
GCase inactivation in organs: inactivates GCase in all organs, including the brain
